Data taken from US9335326B2, “Compositions and methods for characterizing a myopathy” (The Johns Hopkins University, priority 2010, dated 2016).

Experiments:
HeLa cells = assay: Immunoprecipitation of 200-kd and 100-kd autoantigens from radiolabeled lysates of mevinolin-treated HeLa cells with patient serum; assay type: cell-based; settings: HeLa cells pretreated for 24 hours with 10 pM mevinolin versus vehicle (DMSO) alone; FIG. 5A
Protocol: Given the strong association of statin use with the development of these anti-200/100-kd autoantibodies, HeLa cells were labelled with ^35S-methionine/cysteine after pretreatment for 24 hours with either 10 pM mevinolin or vehicle (DMSO) alone. To validate the protein equivalence of these lysates, immunoprecipitations were performed using antibodies against Mi-2 or PM-Scl. As anticipated, equal amounts of Mi-2 and the 5 protein components of the PM-Scl complex were detected in each lysate type.
Serum samples collected from each patient were stored at −80° C. HeLa cells cultured using standard procedures were radiolabeled for two hours with 100 μCi/ml ^35S-methionine and cysteine (MP Biomedicals, Solon, Ohio) in methionine-free and cysteine-free medium. The cells were subsequently lysed in buffer A (50 mM Tris pH 7.4, 150 mM NaCl, […], 0.5% Nonidet P40, 0.5% sodium deoxycholate, 0.1% sodium dodecyl sulfate (SDS), and a protease inhibitor cocktail). Each 10-cm dish was lysed in 1 ml buffer A and was used for 10 immunoprecipitations. Immunoprecipitations were performed by adding 1 μl of patient sera to 100 μl radiolabeled lysate and bringing the volume to 1 ml with buffer B (1% Nonidet P40, 20 mM Tris pH 7.4, 150 mM NaCl, 1 mM EDTA, and a protease inhibitor cocktail) and rotating the mix for one hour at 4° C. […]

[1] = test system: anti-200/100 autoantibody-positive patients; assay: Treatment response (objective improvement in strength) of anti-200/100 autoantibody-positive patients with necrotizing myopathy; assay type: in vivo, human
Description: Medication regimens and treatment responses (based on objective improvements in strength) were variable. The clinical characteristics of the 16 anti-200/100 autoantibody-positive patients are available. […] Six (43%) of the 14 patients experienced a relapse when immunosuppressive medication was tapered or withdrawn. Seven […] of the 14 patients are currently undergoing tapering of their immunosuppressive medications and have not experienced a relapse to date. Only 1 patient had complete tapering of immunosuppressive medications without experiencing a relapse of weakness.
Two hundred twenty-five patients with banked sera, muscle biopsy specimens available for review, and a myopathy as defined by proximal muscle weakness, elevated creatine kinase (CK)levels, myopathic electromyography (EMG) findings, muscle edema on magnetic resonance imaging (MRI), and/or features of myopathy on muscle biopsy were enrolled in a longitudinal study, approved by the Johns Hopkins Institutional Review Board, from March 2007 through December 2008. […]

[2] = test system: human anti-HMGCR antibodies; assay: Competition immunoprecipitation: patient sera preincubated with unlabeled C-terminal HMGCR, then IP of full-length IVTT HMGCR; assay type: binding; settings: anti-HMGCR-positive sera preincubated with increasing concentrations of unlabeled C-terminal HMGCR; FIG. 7A
Description: HMG-CoA reductase is a membrane protein with a small extracellular domain, seven membrane-spanning domains, and an intracellular catalytic domain. To define the region(s) of the protein recognized by sera from patients with anti-HMGCR antibodies, 35S-methionine-labeled full-length HMGCR protein, an N-terminal fragment including the extracellular and membrane-spanning domains (aa 1-377 of SEQ ID NO: 1), and a C-terminal fragment including the intracellular portion of the molecule (aa 340-888 of SEQ ID NO: 1) were synthesized. Serum from anti-HMGCR-positive patients consistently immunoprecipitated full-length HMGCR and the C-terminal fragment, but not the N-terminal fragment (FIG. 6). When anti-HMGCR-positive sera were preincubated with increasing concentrations of unlabeled C-terminal HMGCR prior to immunoprecipitation of 35S-methionine-labeled full-length HMGCR protein, immunoprecipitation was abolished (FIG. 7A).
DNA encoding full-length human HMG-CoA reductase was purchased from Invitrogen (Carlsbad, Calif.). […]
One microliter of each patient serum was preincubated (30 minutes at 4° C. in 50 μl) with the catalytic domain of human HMG-CoA reductase (aa 426-888 of SEQ ID NO: 1) expressed as a fusion protein with glutathione S-transferase (hereinafter referred to as “C-terminal HMG-CoA reductase”; Sigma). […]

CC[C@H](C)C(=O)O[C@H]1C[C@@H](C)C=C2C=C[C@H](C)[C@H](CC[C@@H]3C[C@@H](O)CC(=O)O3)[C@H]21 [mevinolin]
increased levels of both the 200-kd and the 100-kd protein immunoprecipitated (HeLa cells): 3 fold

C[C@]12C=CC(=O)C=C1CC[C@@H]1[C@@H]2C(=O)C[C@@]2(C)[C@H]1CC[C@]2(O)C(=O)CO [prednisone]
initial response to prednisone ([1]; most patients, combination immunosuppressive therapy was required): very modest initial response

Rituximab: immunosuppressant drug
benefit as adjunct therapy ([1]; added to prednisone and azathioprine or methotrexate): helpful adjuncts

B1: C-terminal HMGCR: catalytic domain of human HMG-CoA reductase (aa 426-888 of SEQ ID NO: 1) expressed as a fusion protein with glutathione S-transferase (Sigma) (protein, UniProt P04035 426-888, looked up, fragment)
chain: SSVLVTQEPEIELPREPRPNEECLQILGNAEKGAKFLSDAEIIQLVNAKHIPAYKLETLMETHERGVSIRRQLLSKKLSEPSSLQYLPYRDYNYSLVMGACCENVIGYMPIPVGVAGPLCLDEKEFQVPMATTEGCLVASTNRGCRAIGLGGGASSRVLADGMTRGPVVRLPRACDSAEVKAWLETSEGFAVIKEAFDSTSRFARLQKLHTSIAGRNLYIRFQSRSGDAMGMNMISKGTEKALSKLHEYFPEMQILAVSGNYCTDKKPAAINWIEGRGKSVVCEAVIPAKVVREVLKTTTEAMIEVNINKNLVGSAMAGSIGGYNAHAANIVTAIYIACGQDAAQNVGSSNCITLMEASGPTNEDLYISCTMPSIEIGTVGGGTNLLPQQACLQMLGVQGACKDNPGENARQLARIVCGTVMAGELSLMAALAAGHLVKSHMIHNRSKINLQDLQGACTKKTA
modifications: GST fusion
immunoprecipitation of 35S-methionine-labeled full-length HMGCR protein [2]: abolished
